Consider 13 molecules from patent publication US11958871B2, “Inhibitors of bacterial glutaminyl cyclases for use in the treatment of periodontal and related diseases” (FRAUNHOFER-GESELLSCHAFT ZUR FÖRDERUNG DER ANGEWANDTEN …, priority 2018, dated 2024).

Read-outs that look alike come from different tables or passages of the source.

Holding throughout (format): biochemical
The target of one assay is PgQC (Porphyromonas gingivalis, UniProt Q7MT37). In words: Inhibitor assay for bacterial glutaminyl cyclase activity (fluorometric, H-Gln-AMC), PgQC. The method, then: (§1) QC activity was evaluated using H-Gln-AMC as the substrate (as previously described in Schilling et al., 2002).
PgQC, sequence (Q7MT37 22-333 limits assumed): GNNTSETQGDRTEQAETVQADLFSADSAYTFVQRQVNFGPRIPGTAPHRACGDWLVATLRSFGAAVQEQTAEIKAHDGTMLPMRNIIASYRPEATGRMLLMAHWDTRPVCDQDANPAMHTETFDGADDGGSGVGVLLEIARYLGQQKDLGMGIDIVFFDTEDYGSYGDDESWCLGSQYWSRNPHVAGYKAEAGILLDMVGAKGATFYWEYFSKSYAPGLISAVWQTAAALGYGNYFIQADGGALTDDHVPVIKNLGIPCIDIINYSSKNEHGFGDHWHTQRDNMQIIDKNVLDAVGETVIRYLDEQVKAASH
(§2) The assay consists of varying concentration of the fluorogenic substrate and 0.5 U pyroglutaminyl aminopeptidase in 50 mM Tris-HCl, 50 mM NaCl at pH 8.0. After 10 minute incubation time at 30° C. reaction was initiated by addition of bacQC to a final volume of 125 μl reaction mixture. The excitation/emission wavelength was 380/460 nm. bacQC activity was determined from a standard curve of the fluorophore AMC under assay conditions. All determinations were carried out in 96 well microtiter plates (Fisher Scientific) at 30° C. using the FluoStar Optima (BMG Labtech).
(§3) For inhibitor testing, the sample composition was the same as described above, except for the addition of the putative inhibitory compound. […] Inhibitory constants were determined using different concentration of H-Gln-AMC varying from ¼ Km-2 Km. Final concentration of bacterial QC was in a range between 25 nM-50 nM.
(∘) represents reaction without inhibitor. Determinations were carried out in 50 mM Tris-HCl, 50 mM NaCl pH 8.0 and 1% (v/v) DMSO at 30° C.
(§4) The following compounds were synthesized as described in the Description of synthetic methods below. Average Ki values for the inhibition of PgQC (isolated and purified as described above), TfQC, PiQC and hQC were measured using the above inhibitor assay and are shown in. Ki refers to the average Ki values measured as described above, and Std(Ki) refers to the standard deviation of Ki.

For the next assay, the target named is hQC (Homo sapiens (Human), UniProt Q16769). Description: Inhibitor assay for glutaminyl cyclase activity (fluorometric, H-Gln-AMC), hQC. The procedure:
as §1, §2, §3, §4

The target of the next assay is TfQC (Tannerella forsythia, UniProt G8UMP8). Description: Inhibitor assay for bacterial glutaminyl cyclase activity (fluorometric, H-Gln-AMC), TfQC. The method, then: as §1, §2, §3, §4
TfQC, sequence (G8UMP8 20-333 limits assumed): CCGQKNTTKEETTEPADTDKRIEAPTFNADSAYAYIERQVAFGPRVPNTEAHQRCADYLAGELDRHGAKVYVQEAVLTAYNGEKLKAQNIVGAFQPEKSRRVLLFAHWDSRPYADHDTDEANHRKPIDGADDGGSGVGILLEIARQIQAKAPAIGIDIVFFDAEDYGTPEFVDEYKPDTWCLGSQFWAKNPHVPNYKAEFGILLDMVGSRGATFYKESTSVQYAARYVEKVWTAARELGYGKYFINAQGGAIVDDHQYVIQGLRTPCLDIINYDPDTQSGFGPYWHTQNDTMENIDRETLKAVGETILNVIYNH
Assay [1] concerns bacterial glutaminyl cyclases. Description: Inhibition of bacterial glutaminyl cyclases, summary statements. The method, then: as §3, §4
Where [2] appears, read: average Ki ± Std(Ki), read-out: PgQC Ki.
The mark [3] stands for this setting: average Ki ± Std(Ki), read-out: hQC Ki.
The mark [4] stands for this setting: average Ki ± Std(Ki), read-out: TfQC Ki.

As a reminder, the Ki is the equilibrium dissociation constant of an inhibitor or competing ligand from its target.

hQC, sequence (Q16769 29-361): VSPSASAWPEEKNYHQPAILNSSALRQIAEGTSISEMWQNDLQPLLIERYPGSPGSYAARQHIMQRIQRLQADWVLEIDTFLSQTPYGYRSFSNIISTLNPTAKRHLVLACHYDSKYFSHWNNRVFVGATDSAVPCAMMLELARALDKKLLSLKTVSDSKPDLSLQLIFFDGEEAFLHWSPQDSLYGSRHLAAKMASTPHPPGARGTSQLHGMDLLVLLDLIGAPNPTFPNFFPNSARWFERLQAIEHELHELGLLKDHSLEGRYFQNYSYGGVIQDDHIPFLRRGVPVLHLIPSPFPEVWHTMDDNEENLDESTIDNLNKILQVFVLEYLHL

As to `COc1cc(F)c(CNc2cnc3[nH]cnc3c2)c(F)c1` [Example 22, N-[(2,6-Difluoro-4-methoxy-phenyl)methyl]-3H-imidazo[4,5-b]pyridin-6-amine], the Ki on PgQC (setting [2]) came out at 30 ± 1 nM.

As for `N=C(N)NCCOc1ccc(CNc2cnc3[nH]cnc3c2)cc1` [Example 17, 1-(2-(4-((Imidazo[4,5-b]pyridin-6-ylamino)methyl)-phenoxy)ethyl)guanidine], the inhibitory constant (Ki) at PgQC (setting [2]) is 14 ± 0.1 nM; at hQC (setting [3]), 455 ± 14 nM; at TfQC (setting [4]), 123 ± 16 nM.

Take `FC1(F)Oc2ccc(CNc3cnc4[nH]cnc4c3)cc2O1` [Example 24, N-[(2,2-Difluoro-1,3-benzodioxol-5-yl)methyl]-3H-imidazo-[4,5-b]pyridin-6-amine]: the inhibition constant Ki at PgQC (setting [2]) came out at 67 ± 1 nM.

Regarding `c1ccc(COc2ccc(CNc3cnc4[nH]cnc4c3)cc2)cc1` [Example 20, N-[(4-Benzyloxyphenyl)methyl]-3H-imidazo[4,5-b]pyridin-6-amine], the Ki on PgQC (setting [2]) came out at 42 ± 4 nM.

Turning to `c1nc2cc(NCc3ccc(N4CCOCC4)cc3)cnc2[nH]1` [Example 27, N-[(4-morpholinophenyl)methyl]-3H-imidazo[4,5-b]pyridin-6-amine], on PgQC (setting [2]), the Ki worked out at 60 ± 2 nM.

Consider `c1nc2cc(NCc3ccc(OCCN4CCOCC4)cc3)cnc2[nH]1` [Example 26, N-[[4-(2-Morpholinoethoxy)phenyl]methyl]-3H-imidazo[4,5-b]pyridin-6-amine], for which, on PgQC (setting [2]), the inhibition constant (Ki) was found to be 33 ± 1 nM.

For `COc1cc(CNc2cnc3[nH]cnc3c2)cc2c1OCO2` [Example 23, N-[(7-Methoxy-1,3-benzodioxol-5-yl)methyl]-3H-imidazo-[4,5-b]pyridin-6-amine], on PgQC (setting [2]), the inhibition constant Ki is 65 ± 13 nM.

Turning to `c1ccc(-c2ccc(CNc3cnc4[nH]cnc4c3)cc2)nc1` [Example 25, N-[[4-(2-Pyridyl)phenyl]methyl]-3H-imidazo[4,5-b]pyridin-6-amine], the inhibition constant (Ki) at PgQC (setting [2]) was found to be 38 ± 3 nM.

Consider `O=C(c1cc(Cl)cc(Cl)c1)N1CCc2[nH]cnc2C1` [MWT-S-00431, (3,5-dichlorophenyl-1,4,6,7-tetrahydro-5H-imidazo[4,5-c]pyridin-5-yl)methanone, reference compound], for which the inhibitory constant (Ki) at PgQC (50 mM Tris-HCl, 50 mM NaCl pH 8.0, 1% (v/v) DMSO, 30° C., read-out: Ki, inhibition of the conversion of H-Gln-AMC by PgQC) was determined as 104 nM.

As to `c1ccc(Oc2cccc(CNc3cnc4[nH]cnc4c3)c2)cc1` [Example 19, N-[(3-Phenoxyphenyl)methyl]-3H-imidazo[4,5-b]pyridin-6-amine], the Ki on PgQC (setting [2]) was determined as 15 ± 0.1 nM.

For the molecule `c1ccc(CNc2ccc3nc[nH]c3n2)cc1` [Example 1, N-Benzylimidazo[4,5-b]pyridin-5-amine], the inhibitory constant (Ki) at PgQC (setting [2]) turned out to be 1940 ± 318 nM; at PgQC (read-out: Ki, PgQC (Table 5)), 1950 nM; on hQC (setting [3]), 8800 ± 127 nM; on hQC (read-out: Ki, hQC (Table 5)), 8800 nM; on TfQC (setting [4]), 8260 ± 361 nM; at TfQC (read-out: Ki, TfQC (Table 5)), 8300 nM. The “inhibitory activity against bacterial glutaminyl cyclases (in words)” value in assay [1] was “significant bacQC inhibitory activity and selectivity for PgQC over hQC”.

Take `c1ccc(-c2ccc(CNc3cnc4[nH]cnc4c3)cc2)cc1` [Example 21, N-[(4-Biphenyl)methyl]-3H-imidazo[4,5-b]pyridin-6-amine]: the Ki on PgQC (setting [2]) came to 19 ± 1 nM.

Turning to `CC(C)Oc1ccc(CNc2cnc3[nH]cnc3c2)cc1` [Example 18, N-[(4-Isopropoxyphenyl)methyl]-3H-imidazo[4,5-b]pyridin-6-amine], the inhibitory constant (Ki) on PgQC (setting [2]) turned out to be 86 ± 5 nM.
